Counter-ions that a name gives are not always drawn. One block for each compound: values may come before it.
What was measured:
NMDA induced convulsions [1] = assay: Test 7: NMDA induced convulsions; assay type: in vivo, Mice of Albino Swiss strain
Protocol: Mice of Albino Swiss strain were treated with saline (controls) or with IPA (1 g/Kg i.p.) one hour before receiving a toxic dose of NMDA (154 mg/Kg i.p.).

Stability = assay type: physicochemical
[2] = system: tryptophan and kynurenic acid in the brain of rats; conditions: rat, in vivo; for KYN/TRP × 10^3: ip, 250 mg/kg
Description: (§1) For the measurement of such levels after administration of 3-indolepyruvic acid or a derivative thereof, a system was set up based on ultraviolet detection of the compounds separated by high pressure liquid chromatography.
(§2) Briefly, after sacrific of the animal, some of the principal organs were taken and homogenized with alkaline ethanol. Proteins and cell remains were removed by centrifugation, whilst the over natant was adsorbed on Bio-Rad AG 1×8 resin. After washing with water it was eluted with formic acid. It was then passed on Bio-Rad AG 50W-×8 resin, eluted with 3% ammonia, dried and retaken with a small amount of water.
(§3) The sample thus obtained was injected into a Waters apparatus for high pressure liquid chromatography, using a C18 10 micron column and eluting with 0,02 m citric acid containing 10% of methanol. The kynurenic acid levels were extrapolated by the calibration line of the acid and reading at 234 nm.
Male rats were treated with saline solution (controls), IPA or tryptophan i.p. one hour before sacrifice. Each lot was of six animals.
The reported values are in picomoles/g for kynurenic acid and picomoles/mg for tryptophan.

kynurenic acid [3] = assay: Test 3: effect on the content of kynurenic acid after administration of IPA in rat; assay type: in vivo; conditions: 3 hours, ± standard error
Kidney homogenate = assay: Test 2: transformation into kynurenic acid in tissue homogenates (kidney); assay type: in vitro ADME, rats
Protocol: (§4) Male rats fasting for 16 hours were sacrificed and their organs were taken and homogenized in 5 volumes of 0,05 M phosphate buffer pH 7,4+0,14 M KCl.
(§5) Small amounts of homogenate (0,8 ml) were additioned with various amounts of 3-indolepyruvic acid or the derivatives thereof, dissolved into a buffer solution, and with a system for the production of free radicals, consisting of ascorbic acid (final 10^-5 M), FeCl3 (final 10^-6 M) and H2 O2 (final 10^-4 M). It was stirred at 37° C., then the reaction was blocked.

[4] = system: audiogenic convulsions in DBA2 mice; assay: Test 6: audiogenic convulsions in DBA2 mice; assay type: in vivo; conditions: for Animals with convulsions, % / Animals with convulsions: one hour before the test; for Animals with convulsions: number/total; for protective action against tonic convulsions induced by sound stimulations (in words): DBA2 mice
Protocol: To evaluate whether an increase in kynurenic acid in the brain after administration of IPA could have a protective action on neurons stressed by excitatory aminoacids, the experimental pattern of inducing convulsions in a particular strain of mice (DBA2) by selected sound stimulations was followed. […] The substances were injected intravenously one hour before the test. Then the number of animals showing tonic convulsions was measured.

kynurenic acid [5] = assay: Test 3: effect on the content of kynurenic acid after administration of IPA in rat; assay type: in vivo; conditions: for increase in the levels of kynurenic acid in the tissues (in words): rat, in vivo
Description: as §1, §2, §3
Male rats were treated with saline solution (controls) or with various doses of IPA, which was injected 3 hours before sacrifice. Each lot comprised 10 animals.
The results are reported in picomoles/g of tissue (or ml of blood)±standard error.

Brain homogenate = assay: Test 2: transformation into kynurenic acid in tissue homogenates (brain); assay type: in vitro ADME, rats; conditions: for Amount of kynurenic acid formed: brain homogenate
Protocol: as §4, §5

[6] = Test 1: transformation of 3-indolepyruvic acid into kynurenic acid in vitro, within a non enzymatic system; assay type: physicochemical; conditions: from 2 mg, HCl 0,1 M, O2 and light
Protocol: When 3-indole pyruvic acid or a derivative thereof of formula 1 is incubated in a slightly acid solution (HCl 0,1 M), in the presence of oxidising agents (O2) and light, in time the formation of small amounts of kynurenic acid is observed. Particularly starting from 2 mg 3-indolepyruvic acid, 0,5 micrograms are obtained after 2 hours and 0,7 micrograms after 4 hours.

kynurenic acid [7] = assay: Test 5: time course of the kynurenic acid levels after administration of IPA; assay type: in vivo, rats; conditions: 250 mg/Kg i.p.; for kynurenic acid level, Brain / kynurenic acid level, Heart / kynurenic acid level, Kidney / kynurenic acid level, Liver: ± standard error
Description: as §1, §2, §3
Male rats, in lots of five animals each, were treated i.p. with 250 mg/Kg IPA and were sacrificed at different times, evaluating the levels of kynurenic acid present in various organs.
The results are reported in picomoles/g±standard error.

Water solubility = assay type: physicochemical
NMDA induced convulsions [8] = conditions: cited from earlier work
[9] = system: audiogenic convulsions in DBA2 mice; conditions: known effect of kynurenic acid; cited from earlier work
excitatory aminoacids = conditions: cited from earlier work; for agonism of excitatory aminoacids (in words): central nervous system of mammals
[10] = 1 g/Kg i.p. one hour before NMDA 154 mg/Kg i.p., number/total
[11] = 100 mg/Kg i.p., 3 hours, ± standard error
[12] = 250 mg.Kg i.p., 3 hours, ± standard error
[13] = 500 mg.Kg i.p., 3 hours, ± standard error

Structure (SMILES): O=C(O)C(=O)Cc1c[nH]c2ccccc12 [3-indolepyruvic acid]
- Deaths (NMDA induced convulsions [1]; [10]): 3/9
- Tonic convulsions (NMDA induced convulsions [1]; [10]): 5/9
- protection against convulsions and death induced by NMDA (in words) (NMDA induced convulsions [1]; mouse, in vivo): able to protect mice against both convulsions and death induced by NMDA
- stability (in words) (Stability): highly instable
- precursor of cerebral kynurenic acid (in words) [2]: selective precursor of cerebral kynurenic acid
- KYN/TRP × 10^3 [2]: 0.40
- kynurenic acid content, Blood (kynurenic acid [3]; 100 mg/Kg per os): 87 ± 8 picomoles/ml of blood
- kynurenic acid content, Brain (kynurenic acid [3]; 100 mg/Kg per os): 28 ± 2 picomoles/g of tissue
- kynurenic acid content, Liver (kynurenic acid [3]; 100 mg/Kg per os): 275 ± 25 picomoles/g of tissue
- kynurenic acid content, Liver (kynurenic acid [3]; 250 mg.Kg i.p.): 547 ± 35 picomoles/g of tissue
- kynurenic acid content, Blood (kynurenic acid [3]; 250 mg/Kg per os): 120 ± 12 picomoles/ml of blood
- kynurenic acid content, Brain (kynurenic acid [3]; 250 mg/Kg per os): 38 ± 3 picomoles/g of tissue
- kynurenic acid content, Liver (kynurenic acid [3]; 250 mg/Kg per os): 485 ± 40 picomoles/g of tissue
- kynurenic acid content, Liver (kynurenic acid [3]; 500 mg.Kg i.p.): 2860 ± 300 picomoles/g of tissue
- Amount of kynurenic acid formed (Kidney homogenate; final 0.8 mg, 30'): 160 ng
- Amount of kynurenic acid formed (Kidney homogenate; final 0.8 mg, 60'): 190 ng
- Amount of kynurenic acid formed (Kidney homogenate; final 0.8 mg, 120'): 208 ng
- Amount of kynurenic acid formed (Kidney homogenate; final 1.6 mg, 30'): 232 ng
- Amount of kynurenic acid formed (Kidney homogenate; final 1.6 mg, 60'): 280 ng
- Amount of kynurenic acid formed (Kidney homogenate; final 1.6 mg, 120'): 315 ng
- Amount of kynurenic acid formed (Kidney homogenate; final 4 mg, 30'): 185 ng
- Amount of kynurenic acid formed (Kidney homogenate; final 4 mg, 60'): 221 ng
- Amount of kynurenic acid formed (Kidney homogenate; final 4 mg, 120'): 270 ng
- Animals with convulsions, % ([4]; 200 mg/Kg intravenously): 33%
- Animals with convulsions ([4]; 200 mg/Kg intravenously): 4/12
- protective action against tonic convulsions induced by sound stimulations (in words) [4]: good protective action
- kynurenic acid content, Blood (kynurenic acid [5]; [11]): 62 ± 3 picomoles/ml of blood
- kynurenic acid content, Brain (kynurenic acid [5]; [11]): 24 ± 1 picomoles/g of tissue
- kynurenic acid content, Liver (kynurenic acid [5]; [11]): 240 ± 20 picomoles/g of tissue
- kynurenic acid content, Blood (kynurenic acid [5]; [12]): 164 ± 10 picomoles/ml of blood
- kynurenic acid content, Brain (kynurenic acid [5]; [12]): 32 ± 3 picomoles/g of tissue
- kynurenic acid content, Blood (kynurenic acid [5]; [13]): 442 ± 20 picomoles/ml of blood
- kynurenic acid content, Brain (kynurenic acid [5]; [13]): 110 ± 10 picomoles/g of tissue
- kynurenic acid in brain, times higher than the controls (kynurenic acid [5]; 500 mg/Kg): six
- increase in the levels of kynurenic acid in the tissues (in words) (kynurenic acid [5]): dose-dependent
- transformation into kynurenic acid in brain homogenate (in words) (Brain homogenate): able to transform into kynurenic acid in the brain
- Amount of kynurenic acid formed (Brain homogenate; 1.6 mg, 30'): 165 ng
- Amount of kynurenic acid formed (Brain homogenate; 1.6 mg, 60'): 280 ng
- Amount of kynurenic acid formed (Brain homogenate; 1.6 mg, 120'): 380 ng
- kynurenic acid obtained ([6]; after 2 hours): 0,5 micrograms
- kynurenic acid obtained ([6]; after 4 hours): 0,7 micrograms
- kynurenic acid levels over time in the organs (in words) (kynurenic acid [7]): high increase of kynurenic acid in all the organs under test (maximum in kidney). The levels remain high even after 4 hours from administration
- kynurenic acid level, Brain (kynurenic acid [7]; 1 hour): 39 ± 4 picomoles/g
- kynurenic acid level, Heart (kynurenic acid [7]; 1 hour): 181 ± 18 picomoles/g
- kynurenic acid level, Kidney (kynurenic acid [7]; 1 hour): 2593 ± 250 picomoles/g
- kynurenic acid level, Liver (kynurenic acid [7]; 1 hour): 827 ± 50 picomoles/g
- kynurenic acid level, Brain (kynurenic acid [7]; 2 hours): 32 ± 3 picomoles/g
- kynurenic acid level, Heart (kynurenic acid [7]; 2 hours): 177 ± 20 picomoles/g
- kynurenic acid level, Kidney (kynurenic acid [7]; 2 hours): 2395 ± 200 picomoles/g
- kynurenic acid level, Liver (kynurenic acid [7]; 2 hours): 464 ± 40 picomoles/g
- kynurenic acid level, Brain (kynurenic acid [7]; 3 hours): 38 ± 4 picomoles/g
- kynurenic acid level, Heart (kynurenic acid [7]; 3 hours): 104 ± 12 picomoles/g
- kynurenic acid level, Kidney (kynurenic acid [7]; 3 hours): 1480 ± 150 picomoles/g
- kynurenic acid level, Liver (kynurenic acid [7]; 3 hours): 235 ± 5 picomoles/g
- kynurenic acid level, Brain (kynurenic acid [7]; 4 hours): 28 ± 3 picomoles/g
- kynurenic acid level, Heart (kynurenic acid [7]; 4 hours): 100 ± 11 picomoles/g
- kynurenic acid level, Kidney (kynurenic acid [7]; 4 hours): 1200 ± 150 picomoles/g
- kynurenic acid level, Liver (kynurenic acid [7]; 4 hours): 122 ± 10 picomoles/g

- Amount of kynurenic acid formed (Brain homogenate; amount not given, 30'): 48 ng
- Amount of kynurenic acid formed (Brain homogenate; amount not given, 60'): 65 ng
- Amount of kynurenic acid formed (Brain homogenate; amount not given, 120'): 83 ng
Structure (SMILES): COC(=O)C(=O)Cc1c[nH]c2ccccc12 [IPA-Methylester, 3-indolepyruvic acid methyl ester]

- Amount of kynurenic acid formed (Brain homogenate; amount not given, 30'): 75 ng
- Amount of kynurenic acid formed (Brain homogenate; amount not given, 60'): 82 ng
- Amount of kynurenic acid formed (Brain homogenate; amount not given, 120'): 92 ng
Structure (SMILES): COC(=O)C(Cc1ccccc1)NC(=O)C(=O)Cc1c[nH]c2ccccc12 (stereo not shown) [IPE-PHE-Ome, 3indolepyruvic acid phenylalanine methylester]

- Amount of kynurenic acid formed (Brain homogenate; amount not given, 30'): 44 ng
- Amount of kynurenic acid formed (Brain homogenate; amount not given, 60'): 48 ng
- Amount of kynurenic acid formed (Brain homogenate; amount not given, 120'): 79 ng
Structure (SMILES): COC(=O)C(Cc1ccc(O)cc1)NC(=O)C(=O)Cc1c[nH]c2ccccc12 (stereo not shown) [IPE-TYR-Ome, 3indolepyruvic acid tyrosine methylester]

Structure (SMILES): O=C(O)C(=O)Cc1c[nH]c2ccccc12 [Mg^++ IPA salt, Mg salt of 3-indolepyruvic acid]
- Animals with convulsions, % ([4]; intravenously, dose not given): 29%
- Animals with convulsions ([4]; intravenously, dose not given): 4/14
- solubility in water (in words) (Water solubility): water soluble

Structure (SMILES): CN[C@H](CC(=O)O)C(=O)O [NMDA, N-methyl-D-aspartic acid]
- neurotoxic effect (in words) (NMDA induced convulsions [8]; activation of receptors of the excitatory aminoacids): powerful neurotoxic effect

- KYN/TRP × 10^3 [2]: 0.16
- Amount of kynurenic acid formed (Kidney homogenate; final 1.6 mg, 30'): 55 ng
- Amount of kynurenic acid formed (Kidney homogenate; final 1.6 mg, 60'): 82 ng
- Amount of kynurenic acid formed (Kidney homogenate; final 1.6 mg, 120'): 111 ng
- increase in the levels of kynurenic acid in the tissues (in words) (kynurenic acid [5]): does not produce such an effect
- transformation into kynurenic acid in brain homogenate (in words) (Brain homogenate): never transformed into kynurenic acid
- Amount of kynurenic acid formed (Brain homogenate; 1.6 mg, 30'): 0 ng
- Amount of kynurenic acid formed (Brain homogenate; 1.6 mg, 60'): 0 ng
- Amount of kynurenic acid formed (Brain homogenate; 1.6 mg, 120'): 0 ng
Structure (SMILES): N[C@@H](Cc1c[nH]c2ccccc12)C(=O)O [Tryptophan, tryptophan, reference compound]
- Animals with convulsions, % ([4]; 200 mg/Kg intravenously): 80%
- Animals with convulsions ([4]; 200 mg/Kg intravenously): 8/10
- protective action against tonic convulsions induced by sound stimulations (in words) [4]: no effective action

Structure (SMILES): O=C(O)c1cc(=O)c2ccccc2[nH]1 [kynurenic acid]
- protection against audiogenic convulsions (in words) [9]: protective against convulsions
- inhibition of the excitatory effects of quinolinic acid, N-methyl-D-aspartate and other aminoacids (in words) (excitatory aminoacids): powerful inhibitor
- protection against the toxicity due to NMDA (in words) (NMDA induced convulsions [8]; well known effect of kynurenic acid): protects against the toxicity due to NMDA

Structure (SMILES): Nc1ccccc1C(=O)CC(N)C(=O)O (stereo not shown) [kynurenine]
- agonism of excitatory aminoacids (in words) (excitatory aminoacids): powerful agonists of excitatory aminoacids

Structure (SMILES): O=C(O)c1cccnc1C(=O)O [quinolinic acid]
- agonism of excitatory aminoacids (in words) (excitatory aminoacids): powerful agonists of excitatory aminoacids

— patent publication US5002963A, “3-indolepyruvic acid derivatives and pharmaceutical use thereof” (priority 1987, dated 1991)
